Experimental data as given in patent publication US20260306500A1, “METHOD OF INHIBITING ADENOSINE TRIPHOSPHATE SECRETION, METHOD OF INHIBITING HEPATIC STELLATE CELL ACTIVATION, METHOD OF DEACTIVATING HEPATIC STELLATE CELL, METHOD OF TREATING HEPATIC FIBROSIS, METHOD OF TREATING NON-ALCOHOLIC STEATOHEPATITIS, AND METHOD OF TREATING PSORIASIS” (Kurume University, priority 2023, published 2026).

Key:
[1] = test system: human epidermal keratinocytes; assay: ATP secretion from keratinocytes upon LPS stimulation; format: cell-based; conditions: 18 hours, 10 μg/ml LPS, N=8 (FIG. 8)
Experimental: Keratinocytes were cultured in the same manner as in Example 1. Keratinocytes were cultured at 2.5×10^4 cells/well in a 24-well plate at 37° C. in 5% CO2 for 4 days. The medium was replaced with a test solution (Hanks' balanced salt solution (HBSS) (manufactured by Gibco) supplemented with imeglimin, metformin, or clodronate), and then incubation was performed at 37° C. in 5% CO2 for 18 hours. Thereafter, LPS (10 μg/ml) was added thereto, and incubation was further carried out for 10 minutes, followed by collection of 200 μl of the supernatant. The supernatant was immediately treated on a heat block at 95° C. for 10 minutes, and ATP in the supernatant was quantified using an ATP Assay Kit−Luminescence (manufactured by Dojindo) (N=8).

[2] = test system: α-SMA-positive cells (stellate cells) in mouse liver; assay: TAA-induced activation of HSCs in mice: α-SMA immunostaining of liver sections; format: in vivo
Source text: For immunohistochemical analysis, liver samples were fixed in 4% paraformaldehyde, embedded in paraffin, and then sectioned. The sections were stained with HE or PSR. In addition, the paraffin-embedded sections were subjected to immunostaining using an α-SMA monoclonal antibody (1:500, catalog No. A5228, manufactured by Sigma-Aldrich) and an F4/80 monoclonal antibody (1:200, catalog No. MCA497GA, manufactured by AbD Serotec). The cell specimens were observed using a microscope (BZ-X700 series, manufactured by Keyence) or a confocal laser microscope (FV1000, manufactured by Olympus Corporation). The number of F4/80-positive cells was counted in four high-power fields per section. The α-SMA-positive area and the PSR-positive area were quantified using the image analysis software Fiji-ImageJ (1.54f).
In accordance with Example 15, immunostaining of α-SMA in liver sections and observation by fluorescence microscopy were performed for the normal control group, the TAA group, and the TAA+IMG group, and for a TAA+Clo group, which was treated in the same manner as the TAA+IMG group except that clodronate, instead of imeglimin, was administered at 30 mg/kg by blending it in the drinking water from 1 week after the start of TAA administration.

mouse auricle [3] = assay: Imiquimod-induced psoriasis model, oral imeglimin (Example 18); format: in vivo
Experimental: Experimental psoriatic symptoms were induced in a mouse auricle by imiquimod. Six-week-old male C57BL/6 mice (N=5) were acclimated for one week. On Days 1 to 7, 62.5 mg of 5% imiquimod cream (Beselna Cream 5%) (3.125 mg in terms of the active ingredient, manufactured by Mochida Pharmaceutical Co. Ltd.) was applied to the right auricle of the mice for 7 consecutive days (IMQ group). Once daily after the imiquimod application, the imeglimin administration group (IMQ+IMG group) received oral administration, at 40 mg/kg, of 500-mg Twymeeg (trademark) tablets (manufactured by Sumitomo Pharma Co. Ltd.) dissolved in physiological saline. The control group received an equal volume of physiological saline. On Day 8, the mice were euthanized by cervical dislocation, and auricle thickness was measured using a dial thickness gauge (manufactured by Adachi Sogyo Co., Ltd.).
Each excised mouse auricle was fixed in 4% paraformaldehyde at 4° C. overnight. After ethanol substitution, the auricle was embedded in paraffin, sectioned using a rotary microtome Leica RM2165 (thickness, […]), and subjected to HE staining or immunohistochemical staining. For the immunohistochemical staining, the sections were deparaffinized, washed in xylene, and rehydrated through graded alcohols. The sections were incubated in DAKO at 95° C. for 30 minutes. The sections were blocked at room temperature for 60 minutes and then incubated at room temperature for 2 hours to allow reaction with a TGM1 anti-rabbit polyclonal antibody (catalog number 12912-3-AP, manufactured by Proteintech). The sample was washed and then allowed to react with a secondary antibody (Alexa 544-conjugated secondary antibody (goat anti-rabbit IgG) (manufactured by Molecular Probes)) at room temperature for 60 minutes. After allowing reaction with DAPI at room temperature for 10 minutes, the sections were mounted with Fluoromount and imaged using a fluorescence microscope (BZ-X710, manufactured by Keyence).

mouse auricle [4] = assay: Imiquimod-induced psoriasis relapse model (Example 20); format: in vivo; conditions: 40 mg/kg oral
Experimental: To the left auricle of each mouse, 62.5 mg of 5% imiquimod cream (Beselna Cream 5%) was applied once daily a total of seven times (Days 1 to 7) in accordance with Example 19 to induce imiquimod-induced psoriasis. Thereafter, the imiquimod treatment was interrupted, and imeglimin (40 mg/kg) was orally administered on alternate days for 2 weeks (Day 8 to 22) (IMG). Mice without administration of imeglimin were designated IMQ. On Day 23, the imiquimod treatment was resumed, and 62.5 mg of 5% imiquimod cream (Beselna Cream 5%) was applied once daily a total of […]. In parallel, imeglimin (40 mg/kg) was orally administered daily to IMG.

[5] = clodronate; cited from earlier work
[6] = PEP; cited from earlier work
[7] = test system: isolated chromaffin granules; conditions: role: inhibitor; 1 to 10 mM PEP; cited from earlier work
[8] = 40 mg/kg oral once daily, Day 8, N=5 (FIG. 33)

Row | SMILES | LPS-stimulated ATP secretion ([1]; 1 μM) | LPS-stimulated ATP secretion ([1]; 10 μM) | α-SMA immunostaining, effect compared with clodronate ([2]; imeglimin 200 mg/kg p.o. (FIG. 30)) | inhibitory effect on psoriatic symptoms by TMG1 immunohistochemical images (mouse auricle [3]; 40 mg/kg oral once daily (FIG. 36)) | epidermal desquamation (mouse auricle [3]; [8]) | psoriatic symptoms (mouse auricle [3]; [8]) | imiquimod-induced auricle thickening (mouse auricle [3]; 40 mg/kg oral once daily, N=5 (FIG. 34)) | relapse-preventing effect on psoriasis (mouse auricle [4]) | psoriatic symptoms after resumed imiquimod treatment (mouse auricle [4]; alternate days Day 8 to 22, then daily from Day 23 (FIG. 43)) | TAA-induced increase in α-SMA-positive reaction ([2]; 30 mg/kg clodronate in drinking water (FIG. 29)) | absorption [5] | accumulation in bone [5] | serious side effect [5] | permeation of the cell membrane [6] | uptake of ATP into isolated chromaffin granules [7]
1 | C[C@@H]1N=C(N)NC(N(C)C)=N1 [imeglimin] | almost completely inhibited | almost completely inhibited | effect similar to that of clodronate | supported by the immunohistochemical images of TMG1 | eliminated epidermal desquamation | reduced the psoriatic symptoms | suppressed | relapse-preventing effect on psoriasis | markedly reduced compared to IMQ |  |  |  |  |  | 
2 | O=P(O)(O)C(Cl)(Cl)P(=O)(O)O [clodronate] |  | almost completely inhibited |  |  |  |  |  |  |  | markedly suppressed | extremely low absorption | accumulate in bone | jaw osteonecrosis |  | 
3 | C=C(OP(=O)(O)O)C(=O)O [PEP, phosphoenolpyruvic acid] |  |  |  |  |  |  |  |  |  |  |  |  |  | freely permeate the cell membrane | inhibited
